From patent US20150352108A1, “AMINO-PYRIMIDINE COMPOUNDS AS INHIBITORS OF TBK1 AND/OR IKK EPSILON” (Alzheimer's Institute of America, priority 2009, published 2015)

Key:
[1] = tested on: IKKε-mediated phosphorylation of IRF3; assay: In-situ phosphorylation of IRF3 (pIRF3 Ser396 ELISA) in HEK293T cells cotransfected with IRF3 and IKKε; assay type: cell-based; details: Homo sapiens, HEK-293T; HEK293T cells, 20 hours, text bins; read-out: IC50 for inhibition of the in-situ IKKε-mediated phosphorylation of IRF3
Procedure: HEK293T cells were cotransfected in a 10-cm dish with IRF3 and IKKε expression plasmids using Lipofectamine 2000 (Invitrogen, Carlsbad, Calif.). The following day, cells were replated at 20,000 per well in 96-well plates and treated with test compounds (compounds according to Formula I) for 20 hours. Cell lysates were prepared and analyzed using an ELISA for phospho-Ser396 (anti-IRF3 capture antibody, Santa Cruz Biotechnology, Inc., Santa Cruz, Calif.; anti-p-Ser396 IRF3 detection antibody, Cell Signaling, Danvers, Mass.). pIRF3 levels in compound treated cells were normalized to DMSO treated cells (no compound). Cell viability was assayed in a parallel set of plates to monitor cytotoxic effects of the test compounds (CellTiter-Glo, Promega, Inc., Madison, Wis.). TBK1 activity was tested by Western blotting using a phospho-specific IRF7 antibody. Similar to above, HEK293T cells were transfected with IRF7 and TBK1 expression plasmids. Cells were seeded in 12-well plates at 150,000 per well and treated overnight with test compounds. Protein lysates were prepared and processed for Western blotting followed by detection using a phosphor-Ser477/Ser479 IRF7 antibody (BD Biosciences, San Jose, Calif.)

IKKε = target: T1, IKKε (Homo sapiens, UniProt Q14164); assay: In-vitro IKKε kinase assay ([γ33]ATP filter-plate); assay type: biochemical; details: text bins; read-out: IC50 for inhibition of the kinase activity of IKKε
T1 construct: His-tag; made in house; host or cells: Sf9 insect cells
T1 sequence (Q14164 1-716): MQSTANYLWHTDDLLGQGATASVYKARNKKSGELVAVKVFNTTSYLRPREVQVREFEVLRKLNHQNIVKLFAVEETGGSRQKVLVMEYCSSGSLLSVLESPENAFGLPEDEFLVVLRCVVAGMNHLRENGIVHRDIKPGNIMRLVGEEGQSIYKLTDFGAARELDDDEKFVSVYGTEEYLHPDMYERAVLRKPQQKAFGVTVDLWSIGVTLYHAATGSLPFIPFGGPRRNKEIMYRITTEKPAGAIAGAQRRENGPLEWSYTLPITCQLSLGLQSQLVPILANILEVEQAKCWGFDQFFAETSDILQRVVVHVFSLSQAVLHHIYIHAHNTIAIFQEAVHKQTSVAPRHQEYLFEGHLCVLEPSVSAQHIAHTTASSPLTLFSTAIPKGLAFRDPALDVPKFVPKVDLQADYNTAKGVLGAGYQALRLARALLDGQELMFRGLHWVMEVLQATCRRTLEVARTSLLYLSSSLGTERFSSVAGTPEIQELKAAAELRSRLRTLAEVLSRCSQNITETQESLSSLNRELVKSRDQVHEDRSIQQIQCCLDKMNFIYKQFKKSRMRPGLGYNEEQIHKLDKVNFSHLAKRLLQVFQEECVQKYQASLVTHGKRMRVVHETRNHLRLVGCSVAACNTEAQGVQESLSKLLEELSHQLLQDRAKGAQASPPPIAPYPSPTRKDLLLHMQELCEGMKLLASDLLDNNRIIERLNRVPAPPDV
In short: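 His-tagged IKKε and TBK1 from Sf9 cells were assayed with myelin basic protein or casein and [γ33]ATP at 2×Km ATP (32 μM for IKKε, 60 μM for TBK1). Enzyme was 0.1 or 0.015 μg/ml for IKKε and 0.1 or 0.02 μg/ml for TBK1 (normal/sensitized). Reactions ran 30-45 min, were filter-captured, scintillation-counted, and normalized to DMSO after background subtraction.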

Row | Structure (SMILES) | IC50 [1] [nM] | IC50 (IKKε) [nM]
1 | CCN(CC)CCOc1cc(Nc2nccc(-c3ccc(OCC4CC4)c(C#N)c3)n2)ccc1F [compound 535, 2-(Cyclopropylmethoxy)-5-[2-({3-[2-(diethylamino)ethoxy]-4-fluorophenyl}amino)pyrimidin-4-yl]benzonitrile] | 250 to 500 | < 5
2 | Cc1nccn1Cc1ccc(Nc2nccc(-c3ccc(OC4CCOCC4)c(C#N)c3)n2)cc1 [compound 609, 5-[2-({4-[(2-Methyl-1H-imidazol-1-yl)methyl]phenyl}amino)pyrimidin-4-yl]-2-(tetrahydro-2H-pyran-4-yloxy)benzonitrile] | < 100 | < 5
3 | N#Cc1cc(-c2ccnc(Nc3ccc(-n4cncn4)cc3)n2)ccc1OC1CCOCC1 [compound 580, 2-(Tetrahydro-2H-pyran-4-yloxy)-5-(2-{[4-(1H-1,2,4-triazol-1-yl)phenyl]amino}pyrimidin-4-yl)benzonitrile] | 250 to 500 | < 5
4 | N#Cc1cc(-c2ccnc(Nc3cccc(-n4cccn4)c3)n2)ccc1OC1CCOCC1 [compound 578, 5-(2-{[3-(1H-Pyrazol-1-yl)phenyl]amino}pyrimidin-4-yl)-2-(tetrahydro-2H-pyran-4-yloxy)benzonitrile] | 250 to 500 | < 5
5 | COC1CN(C(C)c2ccc(Nc3nccc(-c4ccc(OC5CCOCC5)c(C#N)c4)n3)cc2)C1 (stereo not drawn) [compound 571, 5-[2-({4-[1-(3-Methoxyazetidin-1-yl)ethyl]phenyl}amino)pyrimidin-4-yl]-2-(tetrahydro-2H-pyran-4-yloxy)benzonitrile] | < 100 | < 5
6 | Cc1ccc(Nc2nccc(-c3ccc(OC4CCOCC4)c(C#N)c3)n2)cc1NCCN(C)C [compound 628, 5-[2-[[3-(2-dimethylamino-ethylamino)-4-methyl-phenyl]amino}pyrimidin-4-yl]-2-tetrahydropyran-4-yloxy-benzonitrile] | < 100 | < 5
7 | CCN(CC)CCOc1cc(Nc2nccc(-c3ccc(OC4CCN(C(=O)[C@H](C)O)CC4)c(C#N)c3)n2)ccc1F [compound 577, 5-[2-({3-[2-(Diethylamino)ethoxy]-4-fluorophenyl}amino)pyrimidin-4-yl]-2-({1-[(2S)-2-hydroxypropanoyl]piperidin-4-yl}oxy)benzonitrile] | 250 to 500 | < 5
8 | COc1cc(Nc2ncc(F)c(-c3ccc(O[C@@H]4CCN(C(=O)CO)C4)c(C#N)c3)n2)ccc1N1CCOCC1 [compound 552, 5-(5-Fluoro-2-{[3-methoxy-4-(morpholin-4-yl)phenyl]amino}pyrimidin-4-yl)-2-{[(3R)-1-(hydroxyacetyl)pyrrolidin-3-yl]oxy}benzonitrile] | < 100 | < 5
9 | N#Cc1cc(-c2ccnc(Nc3cccc(N4CCC[C@H]4CO)c3)n2)ccc1O[C@@H]1CCN(C(=O)CO)C1 [compound 669, 2-{[(3R)-1-(Hydroxyacetyl)pyrrolidin-3-yl]oxy}-5-[2-({3-[(2S)-2-(hydrfoxymethyl)pyrrolidin-1-yl]phenyl}amino)pyrimidin-4-yl]benzonitrile] | 100 to 250 | < 5
10 | COc1cc(Nc2nccc(-c3ccc(OCC(C)C)c(C#N)c3)n2)ccc1CN1CC(OC)C1 [compound 600, 5-[2-({3-Methoxy-4-[(3-methoxyazetidin-1-yl)methyl]phenyl}amino)pyrimidin-4-yl]-2-(2-methylpropoxy) benzonitrile] | 100 to 250 | 5 to 50
11 | N#Cc1cc(-c2ccnc(Nc3cccc(CN4CCCC4)c3)n2)ccc1OC1CCOCC1 [compound 542, 5-(2-{[3-(Pyrrolidin-1-ylmethyl)phenyl]amino}pyrimidin-4-yl)-2-(tetrahydro-2H-pyran-4-yloxy)benzonitrile] | < 100 | < 5
12 | CN(C)Cc1cccc(Nc2nccc(-c3ccc(O[C@@H]4CCN(C(=O)CO)C4)c(C#N)c3)n2)c1 [compound 642, 5-[2-({3-[(Dimethylamino)methyl]phenyl}amino)pyrimidin-4-yl]-2-{[(3R)-1-(hydroxyacetyl)pyrrolidin-3-yl]oxy}benzonitrile] | < 100 | < 5
